According to PubChem BioAssay (NCI):
Several values for one entry are separate records, joined by “and”; a condition that tells them apart may be missing. Equal entries are not always repeated.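 Five compound concentrations were applied to cells in 96-well plates for 48 hours; endpoints were derived by simple linear interpolation of the resulting dose-response curve. Abbreviation: GI50, concentration required for 50% inhibition of growth. Definition used: TGI = concentration required for complete inhibition of growth.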

What was measured:
Assay in all cases: growth of human tumour cells (NCI), 48 h
HS 578T breast = tested on: HS 578T breast
UO-31 renal = tested on: UO-31 renal
SNB-19 CNS = tested on: SNB-19 CNS
M14 melanoma = tested on: M14 melanoma
SK-MEL-5 melanoma = tested on: SK-MEL-5 melanoma
PC-3 prostate = tested on: PC-3 prostate
RPMI-8226 leukemia = tested on: RPMI-8226 leukemia
NCI-H226 lung = tested on: NCI-H226 lung
HOP-92 NSCLC = tested on: HOP-92 NSCLC
OVCAR-3 ovarian = tested on: OVCAR-3 ovarian

Structure (SMILES) | GI50 (HS 578T breast) | TGI (HS 578T breast) | GI50 (UO-31 renal) | TGI (UO-31 renal) | GI50 (SNB-19 CNS) | TGI (SNB-19 CNS) | GI50 (M14 melanoma) | TGI (M14 melanoma) | GI50 (SK-MEL-5 melanoma) | TGI (SK-MEL-5 melanoma) | GI50 (PC-3 prostate) | TGI (PC-3 prostate) | GI50 (RPMI-8226 leukemia) | TGI (RPMI-8226 leukemia) | GI50 (NCI-H226 lung) | TGI (NCI-H226 lung) | TGI (HOP-92 NSCLC) | TGI (OVCAR-3 ovarian) | GI50 (OVCAR-3 ovarian) | GI50 (HOP-92 NSCLC)
CC(=O)C1CCC2C3CC=C4CC(SC(=N)N)CCC4(C)C3CCC12C (stereo not given) | 2560 nM | 11300 nM | 2360 nM | 7540 nM | 3120 nM | 32100 nM | 1460 nM | 2810 nM | 1650 nM | 3010 nM | 1550 nM | 4200 nM | 1410 nM | 3330 nM | 2900 nM | 9260 nM | – | – | – | –
COc1cc2c(cc1OC)c1c(OC)c(OC)cc3c1c1c2sc(=S)n1CC3 | – | – | – | > 100000 nM | – | > 100000 nM | – | 35100 nM | – | > 100000 nM | – | – | – | > 100000 nM | – | > 100000 nM | > 100000 nM | > 100000 nM | – | –
COc1ccc2c(c1)N(CCO)C1=C(C(=O)OC1)C2c1ccccc1 (stereo not given) | 1390 nM | 4990 nM | 2370 nM | > 50000 nM | 2320 nM | > 50000 nM | 1400 nM | 4650 nM | 1580 nM | 8830 nM | 1750 nM | > 50000 nM | 1780 nM | > 50000 nM | 1550 nM | 19000 nM | – | 2470 nM | 1180 nM | –
CC1=C2[C@H](c3ccccc3)C3C=CC2(c2ccccc23)N(C(=O)C(c2ccccc2)c2ccccc2)C1=O (stereo not given in full) | – | – | – | > 100000 nM | – | > 100000 nM | – | > 100000 nM | – | > 100000 nM | – | – | – | – | – | – | > 100000 nM | > 100000 nM | – | –
CCCCCCCCCOC(=S)NCCCCC | – | – | – | 51100 nM | – | > 100000 nM | – | 87900 nM | – | 40700 nM | – | – | – | 40000 nM | – | – | 53900 nM | – | – | –
O=C(Nc1cccnc1)c1ccc2ccc3ccc(C(=O)Nc4cccnc4)nc3c2n1 | 434 nM | > 100000 nM | > 100000 nM | > 100000 nM | 84.5 nM | > 100000 nM | 79.9 nM | > 100000 nM | 271 nM | > 100000 nM | 158 nM | > 100000 nM | 87.6 nM | > 100000 nM | 128 nM | > 100000 nM | – | > 100000 nM | 242 nM | –
CCC[CH2][Sn]([CH2]CCC)([O]C(=O)c1cc(F)cc(F)c1)[O][Sn]([CH2]CCC)([CH2]CCC)[O]C(=O)c1cc(F)cc(F)c1 | – | – | 1660 nM | 3020 nM | 1520 nM | 2860 nM | 1480 nM | 2810 nM | 1460 nM | 2770 nM | – | – | – | – | 1450 nM | 2810 nM | 2520 nM | 2860 nM | 1520 nM | 1250 nM
COc1ccc(/C=C\c2cc(OC)c(OC)c(OC)c2)c(O)c1O | – | – | 6760 nM | 33700 nM and > 77800 nM | 51.7 nM and 50 nM | 85300 nM | – | 9950 nM | < 15 nM | – | – | 36100 nM | 63.5 nM | 20900 nM and 9140 nM | 297 nM and 50 nM | 1690 nM and 1620 nM | – | 6470 nM and 770 nM | 69.5 nM and 83.2 nM | 58.8 nM
